These are literature values, as cited in patent US20050238616A1, “Compositions for treatment of central nervous system neoplasms, and methods of making and using the same” (Guilford Pharmaceuticals, Inc., priority 2002, published 2005).

The data set concerns human glioma cell lines. To be noted: several human glioma cell lines in vitro.

As to `CC(=O)O[C@H]1C(=O)[C@@]2(C)[C@H]([C@H](OC(=O)c3ccccc3)[C@]3(O)C[C@H](OC(=O)[C@H](O)[C@@H](NC(=O)c4ccccc4)c4ccccc4)C(C)=C1C3(C)C)[C@]1(OC(C)=O)CO[C@@H]1C[C@@H]2O` [paclitaxel], the LD90 was 5 to 10 nM.
